Source: US11629171B2, “Beta-hairpin peptidomimetics” (POLYPHOR AG, priority 2017, dated 2023)
≈ marks a conversion by molar mass, not a printed value. Where a SMILES comes first, the peptide text is derived from it. Bridges are numbered along the chain shown (N, C = ends). Roman numbers before positions name the chains, in order. [ ]: non-standard residue; d: D form. The star is where a group is joined. dThr(ol) = C[C@H](O)[C@@H](N)CO; Thr(ol) = C[C@@H](O)[C@H](N)CO; Tle = CC(C)(C)[C@H](N)C(=O)O; Hiv = CC(C)[C@H](O)C(=O)O; dDab = NCC[C@@H](N)C(=O)O; hSer = N[C@@H](CCO)C(=O)O; Orn = NCCC[C@H](N)C(=O)O; Dab = NCC[C@H](N)C(=O)O; Dap = NC[C@H](N)C(=O)O; Propionyl = CCC(=O)*

Legend:
Assay type in all cases: cell-based
[1] = test system: Acinetobacter baumannii 872842; details: 872842
How it was run: (§1)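 MIC in μg/mL, read as no visible growth after 18-20 hours at 35° C. Peptides were serially diluted two-fold in MH-II broth plus P-80 (0.002% final, v/v) and inoculated at about 10^6 CFU/mL following the CLSI broth microdilution standard.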

[2] = test system: Acinetobacter baumannii DSM 30008; details: DSM 30008
How it was run: as §1

[3] = test system: Enterobacter cloacae 848840; details: 848840
How it was run: as §1

[4] = test system: Escherichia coli 926415; details: 926415
How it was run: as §1

[5] = test system: Escherichia coli ATCC 25922; details: ATCC 25922
How it was run: as §1

[6] = test system: Klebsiella pneumoniae 968733; details: 968733
How it was run: as §1

[7] = test system: Klebsiella pneumoniae SSI #3010; details: SSI #3010
How it was run: as §1

[8] = test system: Pseudomonas aeruginosa ATCC 27853; details: ATCC 27853
How it was run: as §1

[9] = test system: human red blood cells (hRBC); assay: Hemolysis; details: red cells of human, 1 h, 200
How it was run: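 Percent hemolysis relative to 2% Triton X-100 (100%) and PBS/10% water (0%), from blank-corrected OD540 of diluted supernatants. Peptides tested at 200 μg/mL against 20% (v/v) washed human erythrocytes, 1 h, 37° C, shaking at 300 rpm.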

Row | Structure (SMILES) | MIC [1] [µg/mL] | MIC [2] [µg/mL] | MIC [3] [µg/mL] | MIC [4] [µg/mL] | MIC [5] [µg/mL] | MIC [6] [µg/mL] | MIC [7] [µg/mL] | MIC [8] [µg/mL] | Acinetobacter baumannii DSM 30008 MIC [2] [µg/mL] | Escherichia coli ATCC 25922 MIC [5] [µg/mL] | Klebsiella pneumoniae SSI #3010 MIC [7] [µg/mL] | Pseudomonas aeruginosa ATCC 27853 MIC [8] [µg/mL] | Hemolysis at 200 μg/mL [9] [%]
1 | CC(C)C[C@@H]1NC(=O)[C@@H](CC(C)C)NC(=O)[C@H](CCN)NC(=O)[C@@H](NC(=O)[C@H](CCN)NC(=O)[C@H](CO)NC(=O)[C@H](CCN)NC(=O)CC[C@@H]2NC(=O)[C@H](CN)NC(=O)[C@H](Cc3ccc(O)cc3)NC(=O)[C@@H](NC(=O)[C@@H](O)C(C)C)CSSC[C@@H](C(=O)N[C@H](CO)[C@@H](C)O)NC(=O)[C@H](C(C)(C)C)NC(=O)[C@H](CO)NC(=O)[C@H](Cc3c[nH]c4ccccc34)NC(=O)[C@H]([C@@H](C)O)NC(=O)[C@@H](CCN)NC2=O)CCNC(=O)[C@H]([C@@H](C)O)NC(=O)[C@H](CCN)NC(=O)[C@H](CCN)NC1=O [Ex. 106] (I: H-[Hiv]CY[Dap]E[dDab]TWS[Tle]C[Thr(ol)] / II: [Dab]S[Dab][Dab][Dab][dL]L[Dab][Dab]T; disulfide I:2-I:11; amide I:5-II:N; lactam II:4-II:C) | 0.25 (≈ 0.105 µM) | 0.0625 (≈ 0.0263 µM) | 0.25 (≈ 0.105 µM) | 0.125 (≈ 0.0527 µM) | 0.0625 (≈ 0.0263 µM) | 0.25 (≈ 0.105 µM) | 0.125 (≈ 0.0527 µM) | 0.125 (≈ 0.0527 µM) |  |  |  |  | <1
2 | CC(=O)N[C@H](C(=O)N[C@H]1CSSC[C@@H](C(=O)N[C@@H](CO)[C@H](C)O)NC(=O)[C@H](C(C)(C)C)NC(=O)[C@H](CO)NC(=O)[C@H](Cc2c[nH]c3ccccc23)NC(=O)[C@H](CO)NC(=O)[C@@H](CCN)NC(=O)[C@H](CCC(=O)N[C@@H](CCN)C(=O)N[C@H](C(=O)N[C@@H](CN)C(=O)N[C@H]2CCNC(=O)[C@H]([C@@H](C)O)NC(=O)[C@H](CCN)NC(=O)[C@H](CCN)NC(=O)[C@H](CC(C)C)NC(=O)[C@@H](CC(C)C)NC(=O)[C@H](CCN)NC2=O)[C@@H](C)O)NC(=O)[C@H](CN)NC(=O)[C@H](Cc2ccc(O)cc2)NC1=O)C(C)C [Ex. 124] (I: Ac-VCY[Dap]E[dDab]SWS[Tle]C[dThr(ol)] / II: [Dab]T[Dap][Dab][Dab][dL]L[Dab][Dab]T; disulfide I:2-I:11; amide I:5-II:N; lactam II:4-II:C) | 0.0625 (≈ 0.026 µM) | 0.0625 (≈ 0.026 µM) | 0.125 (≈ 0.0521 µM) | 0.25 (≈ 0.104 µM) | 0.0625 (≈ 0.026 µM) | 0.25 (≈ 0.104 µM) | 0.125 (≈ 0.0521 µM) | 0.125 (≈ 0.0521 µM) |  |  |  |  | 2
3 | CC(=O)N[C@@H](CCN)C(=O)N[C@H](C(=O)N[C@H]1CSSC[C@@H](C(N)=O)NC(=O)[C@H](C(C)(C)C)NC(=O)[C@H](CO)NC(=O)[C@H](Cc2c[nH]c3ccccc23)NC(=O)[C@H](CCN)NC(=O)[C@@H](CCN)NC(=O)[C@H](CCC(=O)N[C@@H](CCN)C(=O)N[C@H](C(=O)N[C@@H](CN)C(=O)N[C@H]2CCNC(=O)[C@H]([C@@H](C)O)NC(=O)[C@H](CCN)NC(=O)[C@H](CCN)NC(=O)[C@H](CC(C)C)NC(=O)[C@@H](CC(C)C)NC(=O)[C@H](CCN)NC2=O)[C@@H](C)O)NC(=O)[C@H](CN)NC(=O)[C@H](Cc2ccc(O)cc2)NC1=O)C(C)C [Ex. 126] (I: Ac-[Dab]VCY[Dap]E[dDab][Dab]WS[Tle]C-NH2 / II: [Dab]T[Dap][Dab][Dab][dL]L[Dab][Dab]T; disulfide I:3-I:12; amide I:6-II:N; lactam II:4-II:C) | 0.25 (≈ 0.103 µM) | 0.125 (≈ 0.0515 µM) | 0.5 (≈ 0.206 µM) | 0.125 (≈ 0.0515 µM) | 0.125 (≈ 0.0515 µM) | 0.25 (≈ 0.103 µM) | 0.125 (≈ 0.0515 µM) | 0.25 (≈ 0.103 µM) |  |  |  |  | <1

Continued, in another order:

Row | MIC [1] [µg/mL] | MIC [2] [µg/mL] | MIC [3] [µg/mL] | MIC [4] [µg/mL] | MIC [5] [µg/mL] | MIC [6] [µg/mL] | MIC [7] [µg/mL] | MIC [8] [µg/mL] | Acinetobacter baumannii DSM 30008 MIC [2] [µg/mL] | Escherichia coli ATCC 25922 MIC [5] [µg/mL] | Klebsiella pneumoniae SSI #3010 MIC [7] [µg/mL] | Pseudomonas aeruginosa ATCC 27853 MIC [8] [µg/mL] | Structure (SMILES) | Hemolysis at 200 μg/mL [9] [%]
4 | 0.0625 (≈ 0.0258 µM) | 0.0625 (≈ 0.0258 µM) | 0.125 (≈ 0.0515 µM) | 0.0625 (≈ 0.0258 µM) | 0.03125 (≈ 0.0129 µM) | 0.0625 (≈ 0.0258 µM) | 0.0625 (≈ 0.0258 µM) | 0.125 (≈ 0.0515 µM) |  |  |  |  | CCC(=O)N[C@H](C(=O)N[C@H]1CSSC[C@@H](C(=O)N[C@@H](CO)C(N)=O)NC(=O)[C@H](C(C)(C)C)NC(=O)[C@H](CO)NC(=O)[C@H](Cc2c[nH]c3ccccc23)NC(=O)[C@H](CO)NC(=O)[C@@H](CCN)NC(=O)[C@H](CCC(=O)N[C@@H](CCN)C(=O)N[C@H](C(=O)N[C@@H](CN)C(=O)N[C@H]2CCNC(=O)[C@H]([C@@H](C)O)NC(=O)[C@H](CCN)NC(=O)[C@H](CCN)NC(=O)[C@H](CC(C)C)NC(=O)[C@@H](CC(C)C)NC(=O)[C@H](CCN)NC2=O)[C@@H](C)O)NC(=O)[C@H](CCN)NC(=O)[C@H](Cc2ccc(O)cc2)NC1=O)C(C)C [Ex. 144] (I: Propionyl-VCY[Dab]E[dDab]SWS[Tle]CS-NH2 / II: [Dab]T[Dap][Dab][Dab][dL]L[Dab][Dab]T; disulfide I:2-I:11; amide I:5-II:N; lactam II:4-II:C) | <1
5 | 0.125 (≈ 0.051 µM) |  | 0.125 (≈ 0.051 µM) | 0.125 (≈ 0.051 µM) |  | 0.25 (≈ 0.102 µM) |  |  | 0.0625 | 0.0625 | 0.125 | 0.125 | CC(=O)N[C@H](C(=O)N[C@H]1CSSC[C@@H](C(=O)N[C@@H](CO)C(N)=O)NC(=O)[C@H](C(C)C)NC(=O)[C@H](Cc2c[nH]cn2)NC(=O)[C@H](Cc2c[nH]c3ccccc23)NC(=O)[C@H](CO)NC(=O)[C@@H](CCN)NC(=O)[C@H](CCC(=O)N[C@@H](CCN)C(=O)N[C@H](C(=O)N[C@@H](CN)C(=O)N[C@H]2CCNC(=O)[C@H]([C@@H](C)O)NC(=O)[C@H](CCN)NC(=O)[C@H](CCN)NC(=O)[C@H](CC(C)C)NC(=O)[C@@H](CC(C)C)NC(=O)[C@H](CCN)NC2=O)[C@@H](C)O)NC(=O)[C@H](CCN)NC(=O)[C@H](Cc2ccc(O)cc2)NC1=O)C(C)C [Ex. 329] (I: Ac-VCY[Dab]E[dDab]SWHVCS-NH2 / II: [Dab]T[Dap][Dab][Dab][dL]L[Dab][Dab]T; disulfide I:2-I:11; amide I:5-II:N; lactam II:4-II:C) | <1
6 | 0.5 (≈ 0.207 µM) | 0.125 (≈ 0.0518 µM) | 0.25 (≈ 0.104 µM) | 1 (≈ 0.414 µM) | 0.0625 (≈ 0.0259 µM) | 1 (≈ 0.414 µM) | 0.125 (≈ 0.0518 µM) | 0.25 (≈ 0.104 µM) |  |  |  |  | CC(C)C[C@@H]1NC(=O)[C@@H](CC(C)C)NC(=O)[C@H](CCN)NC(=O)[C@@H](NC(=O)[C@H](CN)NC(=O)[C@@H](NC(=O)[C@H](CCN)NC(=O)CC[C@@H]2NC(=O)[C@H](CCN)NC(=O)[C@H](Cc3ccc(O)cc3)NC(=O)[C@@H](NC(=O)[C@@H](O)C(C)C)CSSC[C@@H](C(=O)N[C@@H](CO)C(N)=O)NC(=O)[C@H](C(C)C)NC(=O)[C@H](CCC(=O)O)NC(=O)[C@H](Cc3c[nH]c4ccccc34)NC(=O)[C@H](CCO)NC(=O)[C@@H](CCN)NC2=O)[C@@H](C)O)CCNC(=O)[C@H]([C@@H](C)O)NC(=O)[C@H](CCN)NC(=O)[C@H](CCN)NC1=O [Ex. 157] (I: H-[Hiv]CY[Dab]E[dDab][hSer]WEVCS-NH2 / II: [Dab]T[Dap][Dab][Dab][dL]L[Dab][Dab]T; disulfide I:2-I:11; amide I:5-II:N; lactam II:4-II:C) | <1
7 | 0.5 (≈ 0.214 µM) | 0.125 (≈ 0.0534 µM) | 0.5 (≈ 0.214 µM) | 1 (≈ 0.427 µM) | 0.0625 (≈ 0.0267 µM) | 2 (≈ 0.854 µM) | 0.25 (≈ 0.107 µM) | 0.25 (≈ 0.107 µM) |  |  |  |  | CC(C)C[C@@H]1NC(=O)[C@@H](CC(C)C)NC(=O)[C@H](CCN)NC(=O)[C@@H](NC(=O)[C@H](CN)NC(=O)[C@@H](NC(=O)[C@H](CCN)NC(=O)CC[C@@H]2NC(=O)CNC(=O)[C@H](CCCN)NC(=O)[C@@H](NC(=O)[C@H](Cc3ccc(O)cc3)NC(=O)[C@@H](NC(=O)[C@@H](O)C(C)C)[C@@H](C)O)CSSC[C@@H](C(=O)N[C@H](C(=O)N[C@@H](C)C(=O)N[C@H](CO)[C@@H](C)O)C(C)(C)C)NC(=O)[C@H](Cc3c[nH]c4ccccc34)NC2=O)[C@@H](C)O)CCNC(=O)[C@H]([C@@H](C)O)NC(=O)[C@H](CCN)NC(=O)[C@H](CCN)NC1=O [Ex. 212] (I: H-[Hiv]TYC[Orn]GEWC[Tle]A[Thr(ol)] / II: [Dab]T[Dap][Dab][Dab][dL]L[Dab][Dab]T; disulfide I:4-I:9; amide I:7-II:N; lactam II:4-II:C) | 1
8 | 0.5 (≈ 0.21 µM) |  | 0.5 (≈ 0.21 µM) | 0.5 (≈ 0.21 µM) |  | 2 (≈ 0.842 µM) |  |  | 0.125 | 0.0625 | 0.0625 | 0.125 | CC(=O)N[C@H](C(=O)N[C@H]1CCN(C)C(=O)C[C@@H](C(=O)N[C@@H](CO)C(N)=O)NC(=O)[C@H](C(C)C)NC(=O)[C@H](CO)NC(=O)[C@H](Cc2c[nH]c3ccccc23)NC(=O)CNC(=O)[C@@H](CCN)NC(=O)[C@H](CCC(=O)N[C@@H](CCN)C(=O)N[C@H](C(=O)N[C@@H](CN)C(=O)N[C@H]2CCNC(=O)[C@H]([C@@H](C)O)NC(=O)[C@H](CCN)NC(=O)[C@H](CCN)NC(=O)[C@H](CC(C)C)NC(=O)[C@@H](CC(C)C)NC(=O)[C@H](CCN)NC2=O)[C@@H](C)O)NC(=O)[C@H](CCN)NC(=O)[C@H](Cc2ccc(O)cc2)NC1=O)C(C)C [Ex. 348] | <1
